For the experiment, the system named is Propionibacterium acnes (ATCC #6919). The experiment in a line: In vitro reduction of P. acnes population (plate counts after timed exposure). Type of experiment: cell-based. On the procedure: In vitro experiments show the effectiveness of a composition comprising salicylic acid and anti-P. acnes immunoglobulin at reducing a specific microorganism population.
The microorganism of interest in the described experiments was Propionibacterium acnes. A stock suspension of P. acnes was prepared by inoculating a sample of P. acnes (ATCC #6919) in Reinforced Clostria broth at 36±1° C. for 5 days anaerobically. This stock suspension was divided into four equal batches. The first batch served as a no treatment control group. The second batch was treated with 2% salicylic acid. The third batch was treated with 3 ppm anti-P. acnes IgY at 95% purity. The fourth batch was treated with 2% salicylic acid and 3 ppm anti-P. acnes IgY at 95% purity. At time intervals 30 seconds, 1 minute, 5 minutes, 12 hours, and 24 hours, 1.0 ml from the inoculated control and test batches was taken and placed into 9.0 ml of neutralizing broth (1:10 dilution). Additional dilutions were made using neutralizing broth to achieve 1:100, 1:1000 and 1:10,000 dilutions. One milliliter from each dilution was plated into TSA+5% sheep blood. The plates were incubated at 36±1° C. for 5 days anaerobically. After the incubation period, all plates were counted to determine the number of microorganism at each time point.

In the case of `O=C(O)c1ccccc1O` [2% SA, salicylic acid (o-hydroxybenzoic acid)], the number of microorganism by setting is: (Exposure Time 30 sec.) 7.20E+05; (Exposure Time 12 hours) less than 10; (Exposure Time 24 hours) less than 10; (Exposure Time Initial, P. acnes stock suspension) 8.20E+05. Besides, the “time after which a 99% kill rate was reached” value (used alone) was found to be 12 h. The “reduction of the concentration of P. acnes” value (within the first 30 seconds) was “about 12%”.

Values taken from patent US20140271670A1, “COMPOSITIONS FOR TREATING SKIN DISORDERS” (priority 2013, published 2014).
